Laboratory results taken from patent US20230114107A1, “COMBINATION ANTI-CANCER THERAPIES WITH INDUCERS OF IRON-DEPENDENT CELLULAR DISASSEMBLY” (Flagship Pioneering Innovations V, Inc., priority 2019, published 2023).

Key:
[1] = test system: NFkB reporter in THP1 monocytes; assay: Screen for innate immune activation: NFkB reporter in THP1 monocytes added to drug-treated HT-1080 cells; assay type: cell-based, human; settings: final compound concentration of 10 PM; reporter read 48h after THP-1 addition; FIG. 17
Procedure: Over 100 FDA-approved anticancer drugs and 6 inducers of ferroptosis were evaluated for their ability to induce innate immune activation, as measured by induction of an NFkB reporter in THP1 monocytes in vitro. The source of the approved anticancer drug compounds was plate Approved Oncology Drug (AOD) IX, available from the National Cancer Institute, Division of Cancer Treatment and Diagnosis (dtp.cancer.gov/organization/dscb/obtaining/available_plates.htm). Briefly, 20,000-30,000 HT-1080 cells were plated per well in 96 well plates, and 10 μl each of compounds from the AOD IX plates were added to each well, for a final compound concentration of 10 PM. The six inducers of ferroptosis listed above were also included in the experiment, as a comparison. After addition of the drug, cells were incubated overnight, and 50,000 THP-1 reporter cells were added to each well on the following day. Reporter induction was measured by colorimetry 48h after reporter cell addition.

[2] = test system: HT1080 fibrosarcoma cells; assay: Viability of HT1080 fibrosarcoma cells after 24 h treatment; assay type: cell-based; settings: various doses
[3] = test system: NFKB reporter in THP1-Dual cells; assay: NFKB reporter activity in THP1-Dual monocytes co-cultured with treated HT1080 cells; assay type: cell-based, human
Procedure: HT1080 fibrosarcoma cells were treated with either control (DMSO) or various doses of Erastin, piperazine erastin (PE), or imidazole ketoerastin (IKE) for 24 hours prior to co-culture with THP1-Dual cells for an additional 24 hours. Erastin was purchased from Selleckchem (Houston, Tex.) and dissolved in DMSO. Subsequently, the THP1 supernatants were assessed for nuclear factor kappa-light-chain-enhancer of activated B cells (NFKB) or interferon regulatory factor (IRF) reporter activity.
HT1080 cells were acquired from ATCC and THP1-Dual cells were acquired from InvivoGen (San Diego, Calif.). THP1-Dual cells are human monocyte cells that induce reporter proteins upon activation of either NFKB or IRF pathways. Both cell types were cultured in 96-well plates for the duration of the assay. HT1080 cells were cultured in DMEM with 10% FBS, and THP1-Dual cells were cultured in RPMI with 10% FBS. 7,500 HT1080 cells were plated 24 hours prior to dosing with Erastin, PE, or IKE, with a final DMSO concentration of 0.5%. 24 hours post-treatment, THP1-Dual cells (25,000 cells/well) were added to the HT1080 cells. 24 hours later, 30 μl of supernatant was mixed with either 200 μl QuantiBlue (InvivoGen, San Diego, Calif.) (for NFKB reporter activity) or 50 μl QuantiLuc (for IRF reporter activity) and absorbance or luminescence was recorded on a Molecular Devices plate reader.
HT1080 fibrosarcoma cells were treated with various doses of Erastin (e.g. […], 0.16, 0.31, 0.63, 1.25, 2.5, 5, 10 or 20 μM) alone or in combination with a ferroptosis inhibitor (1 μM Ferrostatin-1, 1 μM Liproxstatin-1, 100 μM Trolox, 25 μM β-Mercaptoethanol or 100 μM Deferoxamine) for 24 hours prior to co-culture with THP1-Dual cells for an additional 24 hours. Ferrostatin-1 and Liproxstatin-1 were purchased from Selleckchem (Houston, Tex.) and dissolved in DMSO. Trolox was purchased from Cayman Chemical Company Inc and resuspended in DMSO. […] Subsequently, the THP1 supernatant was assessed for NFKB activity. […]
HT1080 fibrosarcoma cells were treated with various doses of Erastin (ferroptosis inducer), docetaxel (apoptosis inducer) or H2O2 (necrosis inducer) for 24 hours prior to co-culture with THP1-Dual cells for an additional 24 hours. […] Subsequently, the THP1 supernatants were assessed for nuclear factor kappa-light-chain-enhancer of activated B cells (NFKB).
HT1080 cells were acquired from ATCC and THP1-Dual cells were acquired from InvivoGen (San Diego, Calif.). […] 24 hours later, 30 μl of supernatant was mixed with either 200 μl QuantiBlue (InvivoGen, San Diego, Calif.) (for NFKB reporter activity) or 50 μl QuantiLuc (for IRF reporter activity) and absorbance or luminescence was recorded on a Molecular Devices plate reader.

[4] = test system: A20 B-cell leukemia cells; assay: Viability of A20 B-cell leukemia / lymphoma cells after treatment; assay type: cell-based; settings: for viability of A20 lymphoma cells, dose dependence: GPX4 inhibitor 0.002-10 μM, 24 hours, FIG. 10A, 11A, 12A
[5] = test system: Caki-1 renal cell carcinoma cells; assay: Viability of Caki-1 renal cell carcinoma cells after treatment; assay type: cell-based
[6] = test system: NFKB reporter in THP1-Dual cells; assay: NFKB reporter activity in THP1-Dual monocytes co-cultured with treated A20 cells; assay type: cell-based, human; settings: for NFKB activity in THP1 cells, dose dependence: A20 lymphoma cells treated with GPX4 inhibitor, FIG. 10B, 11B, 12B
Procedure: A20 B-cell leukemia cells were treated with either control (DMSO) or various doses of RSL3, for 24 hours prior to co-culture with THP1-Dual cells for an additional 24 hours. RSL3 was purchased from Selleckchem (Houston, Tex.) and dissolved in DMSO. Subsequently, the THP1 supernatants were assessed for NFKB or IRF reporter activity.
A20 cells were acquired from ATCC and THP1-Dual cells acquired from InvivoGen (San Diego, Calif.). Both cell types were cultured in 96-well plates for the duration of the assay. 50,000 A20 cells were plated 24 hours prior to dosing with RSL3, with a final DMSO concentration of 0.5%. 24 hours post-treatment, THP1-Dual cells (25,000 cells/well) were added to the A20 cells. 24 hours later, 30 μl of supernatant was mixed with either 200 μl QuantiBlue (InvivoGen, San Diego, Calif.) or 50 μl QuantiLuc and absorbance or luminescence was recorded on a Molecular Devices plate reader.
A20 lymphoma cells were treated with various doses (e.g. 0.002, 0.005, 0.014, 0.041, 0.123, 0.370, 1.111, 3.333 and 10 μM) of a GPX4 inhibitor (RSL3, ML162 or ML210) in the presence or absence of 1 μM Ferrostatin-1 for 24 hours. ML162 was purchased from Cayman Chemical Company Inc and resuspended in DMSO. ML210 was purchased from Sigma-Aldrich and resuspended in DMSO. A20 lymphoma cells were also treated with DMSO as a negative control. After treatment with DMSO or a GPX4 inhibitor for 24 hours, the A20 lymphoma cells were co-cultured with THP1-Dual cells for an additional 24 hours. Subsequently, the THP1 supernatant was assessed for NFKB reporter activity. A20 cells were acquired from ATCC and THP1-Dual cells were acquired from InvivoGen (San Diego, Calif.). Both cell types were cultured in 96-well plates for the duration of the assay.

[7] = test system: NFKB reporter in THP1-Dual cells; assay: NFKB reporter activity in THP1-Dual monocytes co-cultured with treated Caki-1 cells; assay type: cell-based, human
Procedure: Caki-1 renal cell carcinoma cells were treated with either control (DMSO) or various doses of Erastin, for 24 hours prior to co-culture with THP1-Dual cells for an additional 24 hours. Erastin was purchased from Selleckchem (Houston, Tex.) and dissolved in DMSO. Subsequently, the THP1 supernatants were assessed for NFKB or IRF reporter activity. Caki-1 cells were acquired from ATCC and THP1-Dual cells acquired from InvivoGen (San Diego, Calif.). Both cell types were cultured in 96-well plates for the duration of the assay. 7,500 Caki-1 cells were plated 24 hours prior to dosing with Erastin, with a final DMSO concentration of 0.5%. 24 hours post-treatment, THP1-Dual cells (25,000 cells/well) were added to the Caki-1 cells. 24 hours later, 30 μl of supernatant was mixed with either 200 μl QuantiBlue (InvivoGen) or 50 μl QuantiLuc and absorbance or luminescence was recorded on a Molecular Devices plate reader. Caki-1 renal cell carcinoma cells were treated with either control (DMSO) or various doses of RSL3, for 24 hours prior to co-culture with THP1-Dual cells for an additional 24 hours. RSL3 was purchased from Selleckchem and dissolved in DMSO. Subsequently, the THP1 supernatants were assessed for NFKB or IRF reporter activity. Caki-1 cells were acquired from ATCC and THP1-Dual cells acquired from InvivoGen (San Diego, Calif.). Both cell types were cultured in 96-well plates for the duration of the assay. 7,500 Caki-1 cells were plated 24 hours prior to dosing with RSL3, with a final DMSO concentration of 0.5%. 24 hours post-treatment, THP1-Dual cells (25,000 cells/well) were added to the Caki-1 cells. 24 hours later, 30 μl of supernatant was mixed with either 200 μl QuantiBlue (InvivoGen, San Diego, Calif.) or 50 μl QuantiLuc and absorbance or luminescence was recorded on a Molecular Devices plate reader. […] Subsequently, the THP1 supernatant was assessed for NFKB reporter activity. Caki-1 cells were acquired from ATCC and THP1-Dual cells acquired from InvivoGen (San Diego, Calif.). Both cell types were cultured in 96-well plates for the duration of the assay.

[8] = ferroptosis, apoptosis, necrosis inducers compared, FIG. 15A
[9] = HT1080 cells treated with ferroptosis, apoptosis or necrosis inducer, FIG. 15B
[10] = HT1080 cells treated 24 hours, co-culture 24 hours, vs DMSO, FIG. 1B, 1D

## CCOc1ccccc1-n1c(C(C)N2CCN(C(=O)COc3ccc(Cl)cc3)CC2)nc2ccccc2c1=O (centres unmarked) [Erastin]
[1]
  increase in NFkB activity relative to the baseline: 3.2 fold

## OO [Example H2O2, H2O2]
[2]; [8]
  viability of HT1080 cells: negatively affected the viability
[3]; [9]
  NFKB signaling in THP1 monocytes: did not have this same effect

## CCOC(=O)c1ccc(NC2CCCCC2)c(N)c1 [Ferrostatin-1]
[4]; 1 μM Ferrostatin-1 with RSL3, ML162 or ML210, 24 hours
  effect on GPX4 inhibitor-decreased viability of A20 lymphoma cells: attenuated
[5]; 1 μM Ferrostatin with RSL3 or ML162, 24 hours
  effect on GPX4 inhibitor-decreased viability of Caki-1 renal carcinoma cells: attenuated
[6]; A20 cells, 1 μM Ferrostatin-1 with RSL3, ML162 or ML210
  effect on GPX4 inhibitor-increased NFKB activity in THP1 cells: attenuated
[7]; Caki-1 cells, 1 μM Ferrostatin with RSL3 or ML162
  effect on GPX4 inhibitor-increased NFKB activity in THP1 cells: attenuated

## CC(C)Oc1ccc(C(=O)Cn2ccnc2)cc1-n1c(CN2CCN(C(=O)COc3ccc(Cl)cc3)CC2)nc2ccccc2c1=O [IKE, imidazole ketoerastin]
[1]
  increase in NFkB activity relative to the baseline: 2.4 fold
[2]; FIG. 1A, 1C
  viability of HT1080 cells: negatively affected the viability
[3]; [10]
  NFKB signaling in THP1 monocytes: elicited NFKB signaling in THP1 monocytes

## COc1ccc(N(C(=O)CCl)C(C(=O)NCCc2ccccc2)c2cccs2)cc1Cl (centres unmarked) [ML162]
[4]
  viability of A20 lymphoma cells, dose dependence: decreased viability of the cells in a dose dependent manner
[5]; GPX4 inhibitor various doses, 24 hours, FIG. 13A, 14A
  viability of Caki-1 renal carcinoma cells, dose dependence: decreased viability of the cells in a dose dependent manner
[6]
  NFKB activity in THP1 cells, dose dependence: increased NFKB activity in THP1 cells in a dose dependent manner
[7]; Caki-1 cells treated with RSL3 or ML162, FIG. 13B, 14B
  NFKB activity in THP1 cells, dose dependence: increased NFKB activity in THP1 cells in a dose dependent manner

## Cc1onc(C(=O)N2CCN(C(c3ccc(Cl)cc3)c3ccc(Cl)cc3)CC2)c1[N+](=O)[O-] [ML210]
[4]
  viability of A20 lymphoma cells, dose dependence: decreased viability of the cells in a dose dependent manner
[6]
  NFKB activity in THP1 cells, dose dependence: increased NFKB activity in THP1 cells in a dose dependent manner

## CC(C)Oc1ccc(CN2CCNCC2)cc1-n1c(CN2CCN(C(=O)COc3ccc(Cl)cc3)CC2)nc2ccccc2c1=O [PE, piperazine erastin]
[2]; FIG. 1A, 1C
  viability of HT1080 cells: negatively affected the viability
[3]; [10]
  NFKB signaling in THP1 monocytes: elicited NFKB signaling in THP1 monocytes

## CC(=O)O[C@@]12CO[C@@H]1C[C@H](O)[C@@]1(C)C(=O)[C@H](O)C3=C(C)[C@@H](OC(=O)[C@H](O)[C@@H](NC(=O)OC(C)(C)C)c4ccccc4)C[C@@](O)([C@@H](OC(=O)c4ccccc4)[C@H]21)C3(C)C [docetaxel, Docetaxel]
[2]; [8]
  viability of HT1080 cells: negatively affected the viability
[3]; [9]
  NFKB signaling in THP1 monocytes: did not have this same effect
